From PubChem BioAssay (NCI)
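Compound exposure: 48 hours, 5 concentrations, 96-well plates. The concentration for full growth arrest is given as TGI.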

Legend:
Assay in all cases: NCI tumour cell line growth inhibition, 48 h
[1] = tested on: P388 leukemia
[2] = tested on: NCI/ADR-RES ovarian
[3] = tested on: M14 melanoma

Row | SMILES | TGI [1] [nM] | TGI [2] [µM] | TGI [3] [µM]
1 | CC(C)=CC(=O)OC1C2C(C)=CC(O)C(O)C2(C)C2C3(O)OCC24C(CC(=O)OC14)C(C)C3O (stereo not drawn) | 20.1 | 123 | –
2 | Nc1n[nH]c(CCCCCCCc2nc(N)n[nH]2)n1 | – | – | > 100
